Where two headings read alike, the source gives them in different places.
How the values were obtained:
[1] = Cytotoxicity, cell viability assay in normal cells; format: cell-based; conditions: human, fraction of 0 μM control; for viability at 0.000244141 μM: Con. 0.000244141 μM; for viability at 0.00390625 μM: Con. 0.00390625 μM; for viability at 0.015625 μM: Con. 0.015625 μM; for viability at 1 μM: Con. 1 μM; for viability at 0.0625 μM: Con. 0.0625 μM; for viability at […]: Con. […]
From the text: (§1) Human peripheral blood mononuclear cells (PBMCs), normal T-cells and B-cells were provided by the University of Pennsylvania Human Immunology Core (HIC), and Patient-derived xenografts (PDXs) were obtained from Fox Chase Cancer Center (FCCC). These samples were from different unidentified and healthy donors with written, informed consent. All the procedures were approved by the Institutional Review Board (IRB) and conducted according to the declarations of Helsinki protocols.
(§2) 5000 cells as indicated were cultured in 96-well plate with 100 μl of media. […] After treatment, the cells were incubated with 100 μl buffer for 10 min at room temperature following the instructions of CellTiter-Glo kit (Promega, Madison, WI). Luminescence was detected using a multi-mode reader Cytation 5 (BioTek, Winooski, VT). […] Two independent experiments done in duplicates were performed.

Raji cells = assay: Cell viability assay (CellTiter-Glo luminescence); format: cell-based, human; conditions: Homo sapiens; for viability at 0.00244141 µM: read-out: relative cell viability (Fig 6f), replicates, Raji, Con. 0.00244141 μM, fraction of 0 μM control; for viability at 0.15625 µM: read-out: relative cell viability (Fig 6f), replicates, Raji, Con. 0.15625 μM, fraction of 0 μM control; for viability at 0.0390625 µM: read-out: relative cell viability (Fig 6f), replicates, Raji, Con. 0.0390625 μM, fraction of 0 μM control; for viability at 0.625 µM: read-out: relative cell viability (Fig 6f), replicates, Raji, Con. 0.625 μM, fraction of 0 μM control; for viability at 10 µM: read-out: relative cell viability (Fig 6f), replicates, Raji, Con. 10 μM, fraction of 0 μM control; for viability at […]: read-out: relative cell viability (Fig 6f), replicates, Raji, Con. […], fraction of 0 μM control
Experimental: as §2

SU-DHL-4 cells = assay: Cell viability assay (CellTiter-Glo luminescence); format: cell-based, human; conditions: Homo sapiens, SU-DHL-4, 144 h; for viability at 0.0390625 µM: read-out: relative cell viability (Fig 6d), replicates, SU-DHL-4, Con. 0.0390625 μM, fraction of 0 μM control; for viability at 0.15625 µM: read-out: relative cell viability (Fig 6d), replicates, SU-DHL-4, Con. 0.15625 μM, fraction of 0 μM control; for viability at 0.625 µM: read-out: relative cell viability (Fig 6d), replicates, SU-DHL-4, Con. 0.625 μM, fraction of 0 μM control; for viability at 10 µM: read-out: relative cell viability (Fig 6d), replicates, SU-DHL-4, Con. 10 μM, fraction of 0 μM control; for viability at 0.00244141 µM: read-out: relative cell viability (Fig 6d), replicates, SU-DHL-4, Con. 0.00244141 μM, fraction of 0 μM control
Experimental: as §2

MOLM14 cells = assay: Cell viability assay (CellTiter-Glo luminescence); format: cell-based; conditions: Homo sapiens; for viability at 0.625 µM: MOLM-14, read-out: relative cell viability (Fig 6e), replicates, MOLM14, Con. 0.625 μM, fraction of 0 μM control; for viability at […]: MOLM-14, read-out: relative cell viability (Fig 6e), replicates, MOLM14, Con. […], fraction of 0 μM control; for viability at 0.00244141 µM: MOLM-14, read-out: relative cell viability (Fig 6e), replicates, MOLM14, Con. 0.00244141 μM, fraction of 0 μM control; for viability at 0.0390625 µM: MOLM-14, read-out: relative cell viability (Fig 6e), replicates, MOLM14, Con. 0.0390625 μM, fraction of 0 μM control; for viability at 0.15625 µM: MOLM-14, read-out: relative cell viability (Fig 6e), replicates, MOLM14, Con. 0.15625 μM, fraction of 0 μM control; for viability at 10 µM: MOLM-14, read-out: relative cell viability (Fig 6e), replicates, MOLM14, Con. 10 μM, fraction of 0 μM control
Experimental: as §2

[2] = Cytotoxicity, cell viability assay in normal cells; format: cell-based, human; conditions: human, PBMC, fraction of 0 μM control, read-out: relative cell viability (Fig 6a), replicates; for viability at 0.00390625 μM: Con. 0.00390625 μM; for viability at 0.015625 μM: Con. 0.015625 μM; for viability at 0.0625 μM: Con. 0.0625 μM; for viability at 1 μM: Con. 1 μM; for viability at 0.000244141 μM: Con. 0.000244141 μM
From the text: as §1, §2

[3] = normal B-cells from healthy donors, B-cells, read-out: relative cell viability (Fig 6c), replicates
[4] = normal T-cells from healthy donors, T-cells, read-out: relative cell viability (Fig 6b), replicates

CC[C@H](Nc1ncnc2[nH]cnc12)c1nc2cccc(F)c2c(=O)n1-c1ccccc1 [Idelalisib]
viability at 0.000244141 μM [1, 3]: 101%
viability at 0.00390625 μM [1, 3]: 103%
viability at 0.015625 μM [1, 3]: 103%
viability at 1 μM [1, 3]: 81.2%
viability at 0.000244141 μM [1, 4]: 105%
viability at 0.00390625 μM [1, 4]: 102%
viability at 0.015625 μM [1, 4]: 98.9%
viability at 1 μM [1, 4]: 98.7%
viability at 0.00244141 µM (Raji cells): 111%
viability at 0.15625 µM (Raji cells): 114%
viability at 0.0390625 µM (SU-DHL-4 cells): 96.2%
viability at 0.15625 µM (SU-DHL-4 cells): 99.8%
viability at 0.625 µM (SU-DHL-4 cells): 87.1%
viability at 10 µM (SU-DHL-4 cells): 33.1%
viability at 0.625 µM (MOLM14 cells): 113%
viability at […] (MOLM14 cells): 120%
viability at 0.00390625 μM [2]: 99.7%
viability at 0.015625 μM [2]: 111%
viability at 0.0625 μM [2]: 83.8%
viability at 1 μM [2]: 89.1%

COc1c(OCCCN2CCOCC2)ccc2c1N=C(NC(=O)c1cnc(N)nc1)N1CCN=C21 [Copanlisib]
viability at 0.000244141 μM [1, 3]: 90.1%
viability at 0.00390625 μM [1, 3]: 95.7%
viability at 0.015625 μM [1, 3]: 91.4%
viability at 0.0625 μM [1, 3]: 79.9%
viability at 1 μM [1, 3]: 52.6%
viability at 0.000244141 μM [1, 4]: 95.3%
viability at 0.00390625 μM [1, 4]: 102%
viability at 0.015625 μM [1, 4]: 94.4%
viability at 0.0625 μM [1, 4]: 107%
viability at 1 μM [1, 4]: 79.9%
viability at 0.00244141 µM (Raji cells): 94.7%
viability at 0.0390625 µM (Raji cells): 91.7%
viability at 0.15625 µM (Raji cells): 102%
viability at 0.625 µM (Raji cells): 67.9%
viability at 10 µM (Raji cells): 7.75%
viability at 0.00244141 µM (SU-DHL-4 cells): 122%
viability at 0.0390625 µM (SU-DHL-4 cells): 69%
viability at 0.15625 µM (SU-DHL-4 cells): 42.6%
viability at 0.625 µM (SU-DHL-4 cells): 12.3%
viability at 10 µM (SU-DHL-4 cells): 5.12%
viability at 0.00244141 µM (MOLM14 cells): 89.1%
viability at 0.0390625 µM (MOLM14 cells): 59%
viability at 0.15625 µM (MOLM14 cells): 58.4%
viability at 0.625 µM (MOLM14 cells): 18.1%
viability at 10 µM (MOLM14 cells): 4.25%
viability at 0.000244141 μM [2]: 104%
viability at 0.00390625 μM [2]: 106%
viability at 0.015625 μM [2]: 92.8%
viability at 0.0625 μM [2]: 73%
viability at 1 μM [2]: 61.4%

C[C@H](NC(=O)c1c(N)nn2cccnc12)c1cc2cccc(C#Cc3cnn(C)c3)c2c(=O)n1-c1ccccc1 [IPI-549]
viability at 0.000244141 μM [1, 3]: 107%
viability at 0.015625 μM [1, 3]: 118%
viability at 0.0625 μM [1, 3]: 105%
viability at 1 μM [1, 3]: 93.7%
viability at […] [1, 3]: 122%
viability at 0.000244141 μM [1, 4]: 108%
viability at 0.00390625 μM [1, 4]: 107%
viability at 0.015625 μM [1, 4]: 109%
viability at 0.0625 μM [1, 4]: 83.1%
viability at 1 μM [1, 4]: 115%
viability at […] [1, 4]: 109%
viability at 0.00244141 µM (Raji cells): 95.4%
viability at 0.0390625 µM (Raji cells): 108%
viability at 0.15625 µM (Raji cells): 113%
viability at 0.625 µM (Raji cells): 122%
viability at 10 µM (Raji cells): 55%
viability at […] (Raji cells): 98.4%
viability at 0.00244141 µM (SU-DHL-4 cells): 94.9%
viability at 0.15625 µM (SU-DHL-4 cells): 115%
viability at 0.625 µM (SU-DHL-4 cells): 94.2%
viability at 10 µM (SU-DHL-4 cells): 30.8%
viability at 0.00244141 µM (MOLM14 cells): 121%
viability at 0.625 µM (MOLM14 cells): 93.4%
viability at 10 µM (MOLM14 cells): 23.9%
viability at […] (MOLM14 cells): 119%
viability at 0.00390625 μM [2]: 98.8%
viability at 0.015625 μM [2]: 104%
viability at 0.0625 μM [2]: 102%
viability at 1 μM [2]: 99.1%

C[C@H](Nc1ncnc2nc[nH]c12)c1cc2cccc(Cl)c2c(=O)n1-c1ccccc1 [Duvelisib]
viability at 0.000244141 μM [1, 3]: 94.3%
viability at 0.00390625 μM [1, 3]: 103%
viability at 0.015625 μM [1, 3]: 80.4%
viability at 0.0625 μM [1, 3]: 104%
viability at 1 μM [1, 3]: 72.7%
viability at 0.000244141 μM [1, 4]: 108%
viability at 0.00390625 μM [1, 4]: 100%
viability at 0.015625 μM [1, 4]: 99.3%
viability at 0.0625 μM [1, 4]: 102%
viability at 1 μM [1, 4]: 93.2%
viability at […] [1, 4]: 103%
viability at 0.00244141 µM (Raji cells): 94.9%
viability at 0.0390625 µM (Raji cells): 112%
viability at 0.15625 µM (Raji cells): 94.1%
viability at 0.625 µM (Raji cells): 99.1%
viability at 10 µM (Raji cells): 64.1%
viability at […] (Raji cells): 104%
viability at 0.00244141 µM (SU-DHL-4 cells): 103%
viability at 0.0390625 µM (SU-DHL-4 cells): 99.8%
viability at 0.15625 µM (SU-DHL-4 cells): 85.8%
viability at 0.625 µM (SU-DHL-4 cells): 75.1%
viability at 10 µM (SU-DHL-4 cells): 27.4%
viability at 0.0390625 µM (MOLM14 cells): 122%
viability at 0.15625 µM (MOLM14 cells): 109%
viability at 0.625 µM (MOLM14 cells): 125%
viability at 10 µM (MOLM14 cells): 24.1%
viability at […] (MOLM14 cells): 106%
viability at 0.000244141 μM [2]: 103%
viability at 0.00390625 μM [2]: 94.6%
viability at 0.015625 μM [2]: 101%
viability at 0.0625 μM [2]: 92.6%
viability at 1 μM [2]: 80.3%

— PMC7253423, “Quassinoid analogs with enhanced efficacy for treatment of hematologic malignancies target the PI3Kγ isoform” (Communications Biology, 2020)
